{
  "source": "paper PMC3423427",
  "about": "“Design and Synthesis of Potent N-Acylethanolamine-hydrolyzing Acid Amidase (NAAA) Inhibitor as Anti-Inflammatory Compounds” (PLoS ONE, 2012)",
  "key": {"[1]": {"target": "T1, monoacylglycerol lipase (MGL) (Homo sapiens, UniProt Q99685)", "T1 sequence (Q99685 1-303)": "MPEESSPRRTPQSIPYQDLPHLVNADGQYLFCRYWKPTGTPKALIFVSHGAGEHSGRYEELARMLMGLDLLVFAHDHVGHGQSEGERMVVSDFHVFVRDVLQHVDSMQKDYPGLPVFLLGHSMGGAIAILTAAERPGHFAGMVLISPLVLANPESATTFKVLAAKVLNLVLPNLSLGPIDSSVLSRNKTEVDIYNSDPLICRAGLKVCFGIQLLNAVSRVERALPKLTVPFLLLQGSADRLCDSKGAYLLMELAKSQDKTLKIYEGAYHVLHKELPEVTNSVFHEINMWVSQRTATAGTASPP", "experiment": "MGL activity assay (Figure S1)", "type": "biochemical", "settings": "100 µM (Figure S1)", "procedure": "(§1) Supplementary file pone.0043023.s001.pdf: Figure S1 Effect of vehicle (open bar) and compound 16 (100 µM, closed bars) on the activity of NAAA, FAAH, MGL, and ASAH. ***, p<0.001, one-way ANOVA, n = 3. (PDF) Click here for additional data file."}, "[2]": {"target": "T2, N-acylsphingosine amidohydrolase (ASAH) (Homo sapiens, UniProt Q13510)", "T2 sequence (Q13510 22-395)": "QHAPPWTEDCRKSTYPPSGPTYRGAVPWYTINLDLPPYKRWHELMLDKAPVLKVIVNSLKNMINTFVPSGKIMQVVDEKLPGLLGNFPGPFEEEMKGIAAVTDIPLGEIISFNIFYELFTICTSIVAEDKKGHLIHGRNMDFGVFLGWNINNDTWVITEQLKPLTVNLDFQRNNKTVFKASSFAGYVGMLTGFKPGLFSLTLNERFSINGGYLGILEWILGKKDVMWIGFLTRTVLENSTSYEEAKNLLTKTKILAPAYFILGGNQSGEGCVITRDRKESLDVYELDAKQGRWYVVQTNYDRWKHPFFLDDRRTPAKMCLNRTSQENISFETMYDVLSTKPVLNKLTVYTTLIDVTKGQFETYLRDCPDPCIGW", "experiment": "ASAH activity assay (Figure S1)", "type": "biochemical", "settings": "100 µM (Figure S1)", "procedure": "as §1"}, "[3]": {"settings": "24 hr", "procedure": "To evaluate the biological and chemical stability of compound 16, we determined the degradation products of compound 16 in different chemical environments, as well as in rat plasma. First, chemical hydrolysis was evaluated at various pHs, i.e. pH 1.0 and pH 13.0. The hydrolytic product, biphenylpropanoic acid, if any, was detected by thin layer chromatography (TLC) after 24 hr incubation with 0.1 M HCl (pH 1.0) or […] (pH 13.0). […] Second, to test whether compound 16 was sensitive to thermal challenge, we placed compound 16 in 80°C incubator for 24 hr."}, "[4]": {"settings": "80% rat plasma, 37°C", "procedure": "In terms of the biological stability test, rat plasma was usually chosen as reference in vitro model for drug stability studies, [20], [21]. The hydrolysis of compound 16 was studied in 80% rat plasma at 37°C physiological condition."}, "[5]": {"target": "T3, NAAA (Rattus norvegicus, UniProt Q5KTC7)", "T3 sequence (Q5KTC7 34-362)": "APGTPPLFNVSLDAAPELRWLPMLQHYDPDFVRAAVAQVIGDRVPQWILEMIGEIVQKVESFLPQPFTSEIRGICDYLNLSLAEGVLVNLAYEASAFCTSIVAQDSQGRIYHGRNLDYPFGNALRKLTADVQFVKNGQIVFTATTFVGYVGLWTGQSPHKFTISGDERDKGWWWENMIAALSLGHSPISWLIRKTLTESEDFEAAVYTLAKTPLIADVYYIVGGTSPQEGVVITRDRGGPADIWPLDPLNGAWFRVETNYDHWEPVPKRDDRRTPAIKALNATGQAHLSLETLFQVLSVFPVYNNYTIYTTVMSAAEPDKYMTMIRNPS", "experiment": "NAAA activity in intact HEK293 cells overexpressing NAAA", "type": "cell-based", "settings": "10 µM, 8 hr", "procedure": "(§2) HEK293 cells overexpressing rat NAAA (HEK293-rNAAA) and rat FAAH (HEK293-rFAAH) were kind gifts from Dr. Daniele Piomelli in University of California, Irvine. The stable-overexpressing cell lines were maintained in Dulbecco’s Modified Eagle Medium (DMEM, Hyclone, Beijing, China) supplemented with 10% FBS (Gibco®, Shanghai, China) containing 0.3 mg/mL G418. Mouse macrophage cells RAW264.7 and Human Embryonic Kidney cell HEK293 cells were purchased from American Type Culture Collection (ATCC, Beijing, China) and maintained in DMEM supplemented with 10% FBS in humidified 5% CO2 atmosphere at 37°C. RAW264.7 cells were plated and cultured overnight until 80% confluence and then incubated with a series of compound 16 of different concentrations for 30 min before challenged by LPS."}, "[6]": {"tested_on": "RAW264.7 cells", "procedure": "as §2\nThe column temperature was set at 40°C."}, "[7]": {"tested_on": "IL-6", "settings": "RAW264.7, 0.5 µg/ml LPS", "procedure": "as §2\n(§3) Total RNA was extracted from RAW264.7 cells with TRIzol (Invitrogen) and quantified by spectrophotometer (Beckman coulter, Shanghai, China). cDNA was synthesized from 1 µg of total RNA by using ReverTra Ace qPCR RT Kit (TOYOBO, Shanghai, China) following the manufacturer’s instructions. Real-time quantitative PCR was performed in a 7300 Real Time PCR System (Applied Biosystems, Shanghai, China) and RNA levels were normalized using glyceraldehyde-3-phosphate dehydrogenase (GAPDH) as an internal standard."}, "[8]": {"tested_on": "iNOS", "settings": "RAW264.7, 0.5 µg/ml LPS", "procedure": "as §2, §3"}, "[9]": {"target": "T3, NAAA", "experiment": "Rapid dilution NAAA assay", "type": "biochemical", "design": "made in house; host or cells: HEK293 cells stably overexpressing rat NAAA (HEK293-rNAAA), a gift from D. Piomelli; crude 800 x g supernatant of sonicated cells", "settings": "pre-incubation 10-fold IC50, 100-fold dilution", "procedure": "Rapid dilution assay was performed as previously described. Briefly, samples containing 100-fold concentrated rNAAA recombinant protein were pre-incubated with 10-fold the IC50-equivalent concentration of compound 16 or vehicle (1% DMSO) for 10 min at 37°C. Samples were then diluted 100-fold with assay buffer containing substrate to initiate reactions, and the time course of product formation was measured by LC/MS."}},
  "note": "Where two headings read alike, the source gives them in different places.",
  "data": [
    {"smiles": "O=C(CCc1ccc(-c2ccccc2)cc1)N1CCCC1", "note": "[Compound 16, 1–(2–Biphenyl–4–yl)ethyl–carbonyl pyrrolidine]", "values": [
      {"measurement": "inhibitory effect on MGL", "setting": "[1]", "result": "no inhibitory effect"},
      {"measurement": "inhibitory effect on ASAH", "setting": "[2]", "result": "no inhibitory effect"},
      {"measurement": "stability, 0.1M HCl", "setting": "[3]; 0.1 M HCl (pH 1.0)", "result": 100, "unit": "%"},
      {"measurement": "hydrolytic product on TLC, acidic medium", "setting": "[3]; 0.1 M HCl (pH 1.0), TLC EtOAc/PE 1:2", "result": "no detectable biphenylpropanoic acid"},
      {"measurement": "hydrolytic product on TLC, basic medium", "setting": "[3]; 0.1 M NaCl (pH 13.0) as printed, TLC EtOAc/PE 1:2", "result": "no detectable biphenylpropanoic acid"},
      {"measurement": "stability, 80°C", "setting": "[3]; 80°C incubator", "result": 100, "unit": "%"},
      {"measurement": "degradation products on TLC after thermal challenge", "setting": "[3]; 80°C, TLC EtOAc/PE 1:2", "result": "no trace of biphenylpropanoic acid or other corresponding residuals"},
      {"measurement": "stability, 0.1NaOH", "setting": "[3]; basic medium (pH 13.0)", "result": 100, "unit": "%"},
      {"measurement": "compound remaining, Rat Serum 8h", "setting": "[4]", "result": 89, "unit": "%"},
      {"measurement": "compound remaining, Rat Serum 8h", "setting": "[4]; listed as compound 16", "result": 89, "unit": "%"},
      {"measurement": "compound remaining, Rat Serum 16h", "setting": "[4]", "result": 64, "unit": "%"},
      {"measurement": "compound remaining, Rat Serum 16h", "setting": "[4]; listed as compound 16", "result": 64, "unit": "%"},
      {"measurement": "inhibition on NAAA activity in intact cells", "setting": "[5]", "result": "more than 60%"},
      {"measurement": "cellular PEA levels, LPS+compound", "setting": "[6]; RAW264.7, 0.5 µg/mL LPS, LPS alone 0.67±0.12", "result": "1.41±0.17", "unit": "pmol/mg protein"},
      {"measurement": "cellular PEA levels, compound alone", "setting": "[6]; RAW264.7, no LPS, vehicle 1.23±0.07", "result": "1.30±0.23", "unit": "pmol/mg protein"},
      {"measurement": "LPS-induced IL-6 mRNA expression", "setting": "[7]", "result": "reversed dose-dependently"},
      {"measurement": "LPS-induced iNOS mRNA expression", "setting": "[8]", "result": "reversed dose-dependently"},
      {"measurement": "NAAA activity after rapid dilution of inhibitor-NAAA complex", "setting": "[9]", "result": "almost completely restored the NAAA activity"}
    ]}
  ]
}
